Experimental data from patent US9914760B2, “Methods of identifying, isolating and using odorant and aroma receptors” (Firmenich SA, priority 2013, dated 2018).

Key:
Olfr740 = experiment: cell-based cAMP assay (HTRF), HEK293T co-transfected with Gαolf; design: species or system mouse; details: increasing concentrations; FIGS. 5A-5D
Source text: (§1) The activity of candidate mouse receptors Olfr740 (SEQ ID NO: 1 and SEQ ID NO: 2), Olfr743 (SEQ ID NO: 5 and SEQ ID NO: 6), and Olfr746 (SEQ ID NO: 37 and SEQ ID NO: 38) to both indole and skatole malodors were confirmed in cell-based cAMP assays. In FIGS. 5A and 5B, FLAG Rho-tagged (SEQ ID 18) Olfr743 (SEQ ID NO: 6) and Olfr740 (SEQ ID NO: 2) cDNA sequences were co-transfected with Gαolf (SEQ ID NO: 21) and exposed to increasing concentrations of indole (left) or skatole (right). FIGS. 5C and 5D are repeat experiments showing similar activity of Olfr740 (SEQ ID NO: 2) with Olfr743 (SEQ ID NO: 6) with indole and skatole. In FIG. 5E, the FLAG Rho-tagged (SEQ ID 18) Olfr746 (SEQ ID NO: 38) cDNA sequence was co-transfected with Gαolf (SEQ ID NO: 21) and exposed to increasing concentrations of indole or skatole. Odorant-induced activity was detected by measuring cAMP levels in the cytosol using the HTRF approach (CisBio kit). […] Co-transfection of HEK cells with Gαolf (SEQ ID NO: 21) alone (no receptor) were used as controls for non-specific activity (control). Activity is defined as the baseline corrected HTRF ratios normalized to the highest signal in the experiment. […] All three receptors show specific dose dependent activity to the malodor compounds and, as such, validate the process for identifying receptors for these compounds. Mouse receptors Olfr740 (SEQ ID NO: 1 and SEQ ID NO: 2) and Olfr743 (SEQ ID NO: 5 and SEQ ID NO: 6) were identified from isolated olfactory neurons that responded to both indole and skatole. Mouse receptor Olfr746 (SEQ ID NO: 37 and SEQ ID NO: 38) was identified in silico by database mining using Olfr740 (SEQ ID NO: 2) and Olfr743 (SEQ ID NO: 6) as query sequences. The receptors are modified at their N-terminus with the FLAG tag and the first 20 amino acids of the bovine rhodopsin receptor (SEQ ID 18), transiently expressed in HEK 293T cells, and stimulated separately with indole and skatole to confirm their identity as bona fide indole/skatole receptors. Co-expression of the human G alpha subunit Gαolf (SEQ ID NO: 21) activates the Gs transduction pathway that leads to an internal cAMP increase upon binding to the appropriate ligand.

Olfr746 = experiment: as above; design: species or system mouse; details: increasing concentrations; FIG. 5E
Source text: as §1

Olfr747 = experiment: in vitro receptor response to indole or skatole; type: cell-based, mouse; details: despite proper cell surface expression (immunostaining)
Source text: (§2) In another aspect, human receptor OR52N2 (SEQ ID NO: 11 and SEQ ID NO: 12) was identified because of its sequence similarity to mouse Olfr665 (SEQ ID NO: 9 and SEQ ID NO: 10), an indole/skatole receptor isolated from olfactory neurons responding to both indole and skatole (Example 6). Human receptor OR11G2 (SEQ ID NO: 13 and SEQ ID NO: 14) was identified because of its sequence similarity to mouse Olfr740 (SEQ ID NO: 1 and SEQ ID NO: 2), an indole/skatole receptor isolated from olfactory neurons responding to both indole and skatole (Example 6). Human receptor OR5AC2 (SEQ ID NO: 75 and SEQ ID NO: 76) was identified because of its sequence similarity to mouse Olfr207 (SEQ ID NO: 77 and SEQ ID NO: 78), an indole/skatole receptor isolated from olfactory neurons responding to both indole and skatole (Example 6). Human receptor OR4C15 (SEQ ID NO: 79 and SEQ ID NO: 80) was identified because of its sequence similarity to mouse Olfr1211 (SEQ ID NO: 81 and SEQ ID NO: 82), an indole/skatole receptor isolated from olfactory neurons responding to both indole and skatole (Example 6). Human receptor OR8S1 (SEQ ID NO: 83 and SEQ ID NO: 84) was identified because of its sequence similarity to mouse Olfr257 (SEQ ID NO: 85 and SEQ ID NO: 86), an indole/skatole receptor isolated from olfactory neurons responding to both indole and skatole (Example 6). Mouse receptor Olfr665 (SEQ ID NO: 9 and SEQ ID NO: 10) was identified directly from NGS data from isolated olfactory neurons responding to both indole and skatole (Example 6). Mouse receptor Olfr740 (SEQ ID NO: 1 and SEQ ID NO: 2) was identified directly from NGS data from isolated olfactory neurons responding to both indole and skatole (Example 6).

Olfr748 = experiment: in vitro receptor response to indole or skatole; type: cell-based, mouse; details: despite proper cell surface expression (immunostaining)
Source text: as §2

Olfr736 = experiment: in vitro receptor response to indole or skatole; type: cell-based, mouse; details: likely lack of cell surface expression
Source text: as §2

Olfr743 = Olfr743 (Mus musculus, UniProt L7N1Y2); experiment: cell-based cAMP assay (HTRF), HEK293T co-transfected with Gαolf; details: for receptor activity (cAMP, HTRF): increasing concentrations, FIGS. 5A-5D
Source text: as §1
Once identified using the procedure outlined herein, the resulting malodor receptor cell lines can be used to screen chemical libraries for compounds that modulate their activity and possibly human perception. This experiment was performed under the same conditions as in Example 4. Cells transfected with Rho-tagged (SEQ ID NO: 18) Olfr743 (SEQ ID NO: 6) were exposed to increasing concentrations of indole in the presence or absence of 300 μM 2-actetonaphthone. […] In the presence of the antagonist compound, a rightward shift of in the dose-response curve is observed resulting in a 4 fold increase in the EC50 to indole. Activity is defined as the baseline corrected HTRF ratios normalized to the highest signal in the experiment.

Chain of Olfr743 (P38405 2-381): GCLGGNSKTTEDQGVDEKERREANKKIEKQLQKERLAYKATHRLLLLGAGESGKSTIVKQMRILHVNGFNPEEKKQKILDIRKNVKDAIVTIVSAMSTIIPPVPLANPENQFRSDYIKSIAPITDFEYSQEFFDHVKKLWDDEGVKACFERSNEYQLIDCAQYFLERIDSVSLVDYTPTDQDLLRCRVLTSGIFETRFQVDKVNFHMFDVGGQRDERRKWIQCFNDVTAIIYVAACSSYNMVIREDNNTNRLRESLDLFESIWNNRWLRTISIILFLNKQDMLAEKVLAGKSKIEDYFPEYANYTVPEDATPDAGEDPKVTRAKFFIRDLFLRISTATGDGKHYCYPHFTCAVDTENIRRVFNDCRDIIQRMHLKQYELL
Chain of Olfr743 (L7N1Y2 entry or part of it): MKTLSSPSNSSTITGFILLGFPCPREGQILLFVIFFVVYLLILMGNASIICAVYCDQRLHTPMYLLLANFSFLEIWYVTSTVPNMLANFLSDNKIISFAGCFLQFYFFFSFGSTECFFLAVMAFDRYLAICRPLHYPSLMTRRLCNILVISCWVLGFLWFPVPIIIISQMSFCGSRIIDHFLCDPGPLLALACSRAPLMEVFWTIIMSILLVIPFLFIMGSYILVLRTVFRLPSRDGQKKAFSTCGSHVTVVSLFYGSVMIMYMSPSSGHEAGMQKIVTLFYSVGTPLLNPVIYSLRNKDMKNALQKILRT

Compound | receptor activity (cAMP, HTRF) (Olfr740) | receptor activity (cAMP, HTRF) (Olfr746) | receptor response (Olfr747) | receptor response (Olfr748) | receptor response (Olfr736) | receptor activity (cAMP, HTRF) (Olfr743) | EC50 (Olfr743; EC50, indole alone, absence of 2-acetonaphthone) [µM] | EC50 (Olfr743; EC50, indole in the presence of 300 μM 2-acetonaphthone) [µM]
Cc1c[nH]c2ccccc12 [skatole, 3-methyl indole] | dose-dependent increase of receptor activity | dose-dependent increase of receptor activity | failed to respond | failed to respond | failed to respond | dose-dependent increase of receptor activity | – | –
c1ccc2[nH]ccc2c1 [indole] | dose-dependent increase of receptor activity | dose-dependent increase of receptor activity | failed to respond | failed to respond | failed to respond | dose-dependent increase of receptor activity | 54 | 206
